Source: patent publication US20250222018A1, “METHODS OF USING AVERMECTIN COMPOSITIONS FOR THE TREATMENT OF PAIN AND DOSING REGIMENS” (L4 BIO LLC, priority 2022, published 2025)

Test system: pentylenetetrazol (PTZ)-induced ictal brain activity
Experiment: Modulation of pentylenetetrazol (PTZ)-induced seizures, BOLD fMRI in rats
Assay type: in vivo, male Wistar rats
Settings: for PTZ-induced brain activity, positive control compounds: Alprazolam 3 mg/kg i.p., 1 dose, no dose printed for Diazepam
Description: Functional MRI (fMRI) was performed using a high-field preclinical MRI system in anesthetized male Wistar rats in order to determine the modulation of pentylenetetrazol (PTZ)-induced ictal brain activity by chronic treatment with test compound (TC). […] Vehicle and 3 mg/kg Alprazolam served as controls (see, Table 11) Seizures were induced with PTZ in each experimental group. A schematic of the study design can be seen in FIG. 6. Various physiological parameters were also measured throughout the experiment including body weight, CO2 levels, blood pH, and heart rate. […] Vehicle and 3 mg/kg Alprazolam served as controls (see, Table 12).

SMILES | PTZ-induced brain activity, positive control compounds | brain regions with statistical significance of BOLD fMRI AUC, Vehicle vs. Alprazolam (FIG. 7A, Alprazolam 3 mg/kg+PTZ, two-way ANOVA)
Cc1nnc2n1-c1ccc(Cl)cc1C(c1ccccc1)=NC2 [Alprazolam] | effectively cancelled PTZ-induced brain activity with high statistical significance in all tested brain regions | in all
CN1C(=O)CN=C(c2ccccc2)c2cc(Cl)ccc21 [Diazepam] | effectively cancelled PTZ-induced brain activity with high statistical significance in all tested brain regions | 
